The values below come from ChEMBL document CHEMBL1201862, “PubChem BioAssay data set” (2004).

Holding throughout (assay): NCI anticancer screen, dose series, 48 h
Assay [1] concerns NCI-H23.
The test system of assay [2] is HCT-15.
The subject of assay [3] is RXF 393.
Assay [4] has as its system A498.
The test system of assay [5] is SR.
For assay [6], the system named is PC-3.
Assay [7] relates to SF-268.
Assay [8] has as its system CCRF-CEM.
The test system of assay [9] is TK-10.
Assay [10] deals with NCI/ADR-RES.
For assay [11], the system named is BT-549.
For assay [12], the system named is SW-620.
Assay [13] concerns K562.
The test system of assay [14] is OVCAR-3.
Assay [15] concerns M14.
Assay [16] relates to SK-OV-3.
Assay [17] concerns OVCAR-4.
For assay [18], the system named is UACC-257.
Assay [19] concerns SK-MEL-5.
Assay [20] has as its system EKVX.

Several values for one entry are separate records, joined by “and”; a condition that tells them apart may be missing. Equal entries are not always repeated.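 Each compound was tested at five concentrations against cells in 96-well plates for 48 hours. GI50 is the concentration that inhibits growth by half.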 Activity calls are given as the source filed them. Rule as the data show it: active = GI50 up to about 1.1 µM and inactive = higher.

As for `C=C1c2nc3ccccc3n2C=C(c2ccc(C)cc2)N1c1ccc(OC)cc1`, the GI50 was > 73.6 µM (inactive) in [1]; 9.51 µM in assay [2]; > 56.9 µM (inactive) in assay [3]; > 72.9 µM (inactive) in assay [4]; 3.22 µM (inactive) in assay [5]; 16.4 µM (inactive) in assay [6]. Moreover, the GI50 in assay [7] was > 100 µM (inactive); in [8] it was 34.4 µM (inactive); in [9] it was > 83.4 µM (inactive); in assay [10], 14.9 µM (inactive); in [11] it was > 82.8 µM (inactive); in assay [12], 13.6 µM (inactive). The GI50 is 6.41 µM (inactive) in [13]; 46.8 µM (inactive) in assay [14]; 58.2 µM (inactive) in [15]; > 100 µM (inactive) in assay [16]; > 94.2 µM (inactive) in [17]; > 89.1 µM (inactive) in assay [18]. The GI50 is 13.7 µM (inactive) in assay [19] and 32.5 µM (inactive) in assay [20].
On to `CN1CCc2cc(N)cc3c2C1Cc1ccc(O)c(O)c1-3` (stereo not given), for which the GI50 in [1] was 46.8 µM (inactive); in assay [2], 36.4 µM; in [3], 55.7 µM (inactive); in [4], 57.7 µM (inactive); in [5], 28.4 µM (inactive); in [6], 38.2 µM (inactive). Besides, the GI50 in [7] is 6.43 µM (inactive); in assay [8], 3.75 µM (inactive); in assay [9], 24.7 µM (inactive); in assay [10], 36.8 µM (inactive); in assay [11] it was 58.2 µM (inactive); in assay [12], 31.8 µM (inactive). Further, the GI50 was 24.9 µM (inactive) in assay [13]; 27.4 µM (inactive) in [14]; 34 µM (inactive) in [15]; 52.7 µM (inactive) in assay [16]; 31.6 µM (inactive) in assay [17]; 16.3 µM (inactive) in assay [18]. The GI50 is 20.4 µM (inactive) in assay [19] and 43.6 µM (inactive) in [20].
On to `CCCCCCCCCCCC(=O)OC[C@@H](C[As](=O)(O)O)OC(=O)CCCCCCCCCCC`, for which the GI50 is 5.69 µM (inactive) in [1]; 9.04 µM in assay [2]; 2.43 µM (inactive) in assay [3]; 11.9 µM (inactive) in [4]; 7.36 µM (inactive) in assay [5]; 2.43 µM (inactive) in assay [6]. The GI50 is 5.15 µM (inactive) in assay [7]; 16.2 µM (inactive) in assay [8]; 11.6 µM (inactive) in assay [9]; 17.3 µM (inactive) in assay [10]; 3.48 µM (inactive) in assay [11]; 15 µM (inactive) in [12]. For the same compound, the GI50 in assay [13] was 5.75 µM (inactive); in assay [14], 4.19 µM (inactive); in [15], 2.49 µM (inactive); in [16], 12.4 µM (inactive); in assay [17] it was 14.2 µM (inactive); in assay [18], 16.4 µM (inactive). Further, the GI50 in assay [19] is 1.82 µM (inactive); in assay [20], 13.7 µM (inactive).
With `CCCCCCOc1ccc(C(=O)NOC)cc1`, the GI50 is > 100 µM (inactive) in assay [1]; more than 100 µM in assay [2]; > 100 µM (inactive) in assay [3]; 99.1 µM (inactive) in [4]; 62.5 µM (inactive) in [5]; 60.1 µM (inactive) in assay [6]. Moreover, the GI50 in [7] was > 100 µM (inactive); in assay [8] it was > 100 µM (inactive); in assay [9], > 100 µM (inactive); in [10], > 100 µM (inactive); in [11] it was 82.8 µM (inactive); in assay [12] it was > 100 µM (inactive). For the same compound, the GI50 in [13] was 40.4 µM (inactive); in [14] it was > 100 µM (inactive); in assay [15] it was > 100 µM (inactive); in assay [16], > 100 µM (inactive); in assay [17], > 100 µM (inactive); in assay [18], > 100 µM (inactive). The GI50 in assay [19] and in assay [20] was > 100 µM (inactive) each time.
Take `COc1ccc(/C=C2/N/C(=N\N=C/C(O)C(O)C(O)C(O)CO)NC2=O)cc1` (stereo not given): the GI50 in [1] was > 100 µM (inactive); in assay [2], more than 100 µM; in [3], > 100 µM (inactive); in assay [4] it was > 100 µM (inactive); in assay [5] it was > 100 µM (inactive); in assay [6] it was > 100 µM (inactive). The GI50 in assay [7] was > 100 µM (inactive); in assay [8], 53.8 µM (inactive); in assay [9], > 100 µM (inactive); in assay [10] it was > 100 µM (inactive); in assay [11], 82.4 µM (inactive) and 65.6 µM (inactive); in [12], > 100 µM (inactive). The GI50 in [13] was 53.8 µM (inactive) and 78 µM (inactive); in [14], > 100 µM (inactive); in assay [15], > 100 µM (inactive); in [16], > 100 µM (inactive); in assay [17] it was 39.9 µM (inactive) and 39.4 µM (inactive); in assay [18], > 100 µM (inactive). In addition, the GI50 in assay [19] and in assay [20] was > 100 µM (inactive) throughout.
As for `C[N+]1=C2[B-](C(C)(C)C)=[N+](C(C)(C)C)[B-]2(C(C)(C)C)[N+](C)=C2[B-](C(C)(C)C)=[N+](C(C)(C)C)[B-]21C(C)(C)C` (stereo not given), the GI50 was > 100 µM (inactive) in assay [1]; more than 100 µM in [2]; > 100 µM (inactive) in [3]; > 100 µM (inactive) in assay [4]; > 100 µM (inactive) in [5]; > 100 µM (inactive) in assay [6]. Besides, the GI50 in assay [7], in assay [8], in [9], in [10], in assay [11] and in [12] was > 100 µM (inactive) throughout. Besides, the GI50 in assay [13], in assay [14], in assay [15], in [16], in [17] and in assay [18] was > 100 µM (inactive) in each case. Besides, the GI50 in assay [19] and in assay [20] was > 100 µM (inactive) each time.
As for `CCOC(=O)/C=C1\C[C@H](NC(=O)OCc2ccccc2)C(=O)N1CC(=O)OCC`, the GI50 is > 100 µM (inactive) in [1]; more than 100 µM in assay [2]; 61.2 µM (inactive) in assay [3]; > 100 µM (inactive) in assay [4]; > 100 µM (inactive) in assay [5]; > 100 µM (inactive) in assay [6]. Moreover, the GI50 in assay [7], in [8], in assay [9], in [10], in [11] and in assay [12] was > 100 µM (inactive) throughout. In addition, the GI50 in assay [13], in assay [14], in [15], in assay [16], in assay [17] and in assay [18] was > 100 µM (inactive) each time. In addition, the GI50 in assay [19] and in assay [20] was > 100 µM (inactive) each time.
For `N#CCCC(C=O)(CCC#N)CCC#N`, the GI50 was > 100 µM (inactive) in assay [1]; more than 100 µM in [2]; > 100 µM (inactive) in assay [3]; > 100 µM (inactive) in assay [4]; > 100 µM (inactive) in assay [5]; > 100 µM (inactive) in assay [6]. Also, the GI50 in assay [7], in assay [8], in [9], in assay [10], in assay [11] and in assay [12] was > 100 µM (inactive) each time. The GI50 in assay [13], in assay [14], in assay [15], in assay [16], in assay [17] and in assay [18] was > 100 µM (inactive) each time. The GI50 in assay [19] and in assay [20] was > 100 µM (inactive) in each case.
Consider `O=C(/C=C/c1ccc(Cl)c(Cl)c1)CCN1CCN(CCC(=O)/C=C/c2ccc(Cl)c(Cl)c2)CC1`, for which the GI50 in [1] is > 10 µM (inactive); in assay [2] it was 13.8 µM; in assay [3], 20.2 µM (inactive); in assay [4], 34.9 µM (inactive); in assay [5], 12.3 µM (inactive); in assay [6], 20.1 µM (inactive). Also, the GI50 was 35.4 µM (inactive) in [7]; 6.59 µM (inactive) in assay [8]; 18 µM (inactive) in [9]; 36.9 µM (inactive) in assay [10]; 24.1 µM (inactive) in [11]; 18.2 µM (inactive) in assay [12]. Moreover, the GI50 in assay [13] is 22.6 µM (inactive); in assay [14] it was 23.6 µM (inactive); in [15] it was 17.8 µM (inactive); in assay [16], 45.6 µM (inactive); in [17], 15.7 µM (inactive); in assay [18], 33 µM (inactive). Further, the GI50 is 19.3 µM (inactive) in assay [19] and 30.4 µM (inactive) in assay [20].
Take `CCCCCCCCC/C=C1\CC(CO)(COC(=O)C2CCCCC2)OC1=O` (stereo not given): the GI50 in assay [1] was 22.9 µM (inactive); in [2], 23.2 µM; in assay [3], 20.2 µM (inactive); in assay [4], 22.1 µM (inactive); in assay [5], 32.4 µM (inactive); in assay [6] it was 17 µM (inactive). For the same compound, the GI50 in assay [7] is 20.4 µM (inactive); in assay [8] it was 12.9 µM (inactive); in assay [9], 21.3 µM (inactive); in [10], 17 µM (inactive); in assay [11], 18.4 µM (inactive); in assay [12], 18.4 µM (inactive). In addition, the GI50 in [13] is 11 µM (inactive); in assay [14] it was 18.6 µM (inactive); in assay [15], 18.6 µM (inactive); in [16] it was 25.8 µM (inactive); in assay [17] it was 22.8 µM (inactive); in [18], 27.4 µM (inactive). For the same compound, the GI50 in assay [19] is 11.8 µM (inactive); in assay [20], 17.9 µM (inactive).
